From patent US6683096B2, “Indolylpiperidine derivatives as antihistaminic and antiallergic agents” (Almirall Prodesfarma, S.A., priority 1999, dated 2004)
Like-named read-outs stand apart in the source and are kept apart here.

Assays:
histamine-H1 receptors = molecular target: T1, histamine-H1 receptors (Cavia porcellus, UniProt P31389); experiment: Histamine-H1 receptor binding assay ([3H]-mepyramine, guinea pig cerebellum membranes)
T1 construct: performed in guinea pig cerebellum membranes; from tissue; host or cells: guinea pig cerebellum membranes
T1 sequence (P31389 whole entry): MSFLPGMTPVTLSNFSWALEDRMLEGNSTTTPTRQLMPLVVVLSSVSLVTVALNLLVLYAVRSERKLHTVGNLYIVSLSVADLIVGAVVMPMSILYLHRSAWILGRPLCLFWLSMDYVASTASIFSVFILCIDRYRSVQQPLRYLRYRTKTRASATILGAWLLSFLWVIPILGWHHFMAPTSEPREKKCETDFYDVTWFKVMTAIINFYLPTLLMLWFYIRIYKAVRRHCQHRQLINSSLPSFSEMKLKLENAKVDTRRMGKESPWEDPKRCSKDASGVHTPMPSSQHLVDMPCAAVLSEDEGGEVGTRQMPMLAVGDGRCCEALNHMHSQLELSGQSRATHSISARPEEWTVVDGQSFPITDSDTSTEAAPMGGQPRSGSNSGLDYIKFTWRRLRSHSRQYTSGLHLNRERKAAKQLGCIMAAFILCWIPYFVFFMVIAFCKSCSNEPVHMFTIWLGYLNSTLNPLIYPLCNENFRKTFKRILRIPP
Protocol: (1) Histamine-H1 receptor binding assay
Briefly, the membrane suspensions (160 μg/ml) were incubated at 30° C. with 0.7 nM [^3H]- mepyramine and different concentrations of the test compounds in a final volume of 250 μl. Binding reactions were terminated by filtration after 30 min of incubation and the bound radioactivity was determined. The specific binding was measured in the presence of 10 μM of promethazine. The affinity of each test compound to the receptor was determined by using at least six different concentrations run in duplicate. IC50 values were obtained by non-linear regression by use of SAS on a DEC AXP computer.

[1] = tested on: histamine-induced skin vascular permeability in rats; experiment: Histamine-induced skin vascular permeability in rats; type: in vivo; conditions: Rattus norvegicus, po; 3 mg/Kg orally, 4 hours after administration, male Wistar rats; read-out: inhibition of the histamine-induced wheal
Protocol: (2) Histamine-induced skin vascular permeability in rats
Male Wistar rats (180-210 g) were treated orally with the test compound or vehicle. One, 4, 8 and 24 hours later, the rats were lightly anaesthetized with ether. The cutaneous reaction was induced by two intradermal injections of 50 μl of histamine (100 μg/ml) onto the back, followed by a intravenous injection of 3 ml/kg of Evan's Blue (5 mg/ml), both dissolved in saline. Sixty min later, the rats were killed by cervical dislocation and the back skin dissected free. The diameter (in millimeters) of the wheal was measured in two directions and the area was calculated.

[2] = guinea pig cerebellum membranes, 0.7 nM [3H]-mepyramine, read-out: BINDING TO RECEPTOR H1 ( IC50 nM )

| SMILES | IC50 (histamine-H1 receptors; [2]) | inhibition in vivo at 3 mg/kg [1] | melting point | IC50 (histamine-H1 receptors) |
| --- | --- | --- | --- | --- |
| CCOCCn1cc(C2CCN(CCOc3ccc(C)cc3C(=O)O)CC2)c2cccc(Br)c21 [Example 143, 2-(2-{4-[7-bromo-1-(2-ethoxy-ethyl)-1H-indol-3-yl]-piperidin-1-yl}-ethoxy)-5-methyl-benzoic acid] | 222 nM | – | – | – |
| CCOCCn1cc(C2CCN(CCOc3cccc(F)c3C(=O)O)CC2)c2cccc(Br)c21 [Example 85, 2-(2-{4-[7-bromo-1-(2-ethoxy-ethyl)-1H-indol-3-yl]-piperidin-1-yl}-ethoxy)-6-fluoro-benzoic acid] | 152 nM | – | – | – |
| CCOCCn1cc(C2CCN(CCOc3ccc(C)cc3C(=O)O)CC2)c2cc(OC)ccc21 [Example 142, 2-(2-{4-[1-(2-ethoxy-ethyl)-5-methoxy-1H-indol-3-yl]-piperidin-1-yl}-ethoxy)-5-methyl-benzoic acid] | 386 nM | > 50% | 144 to 146 °C | – |
| O=C(O)COCCN1CCN(C(c2ccccc2)c2ccc(Cl)cc2)CC1 (stereo not drawn) [CETIRIZINE, reference compound] | 226 nM | – | – | – |
| O=C(O)c1cccc(CN2CCC(c3c[nH]c4ccccc34)CC2)c1 [Example 54, 3-[4-(1H-indol-3-yl)-piperidin-1-ylmethyl]-benzoic acid] | 106 nM | – | – | – |
| O=C(O)c1ccccc1OCCN1CCC(c2c[nH]c3ccccc23)CC1 [Example 151, 2-{2-[4-(1H-indol-3-yl)-piperidin-1-yl]-ethoxy}-benzoic acid] | – | – | 230 °C | – |
| CC(C)CCn1cc(C2CCN(CCOc3ccccc3C(=O)O)CC2)c2ccccc21 [Example 139, 2-(2-{4-[1-(3-methyl-butyl)-1H-indol-3-yl]-piperidin-1-yl}-ethoxy)-benzoic acid] | 205 nM | – | 150 to 151 °C | – |
| CCCCCn1cc(C2CCN(Cc3ccc(C(=O)O)o3)CC2)c2ccccc21 [Example 41, 5-[4-(1-pentyl-1H-indol-3-yl)-piperidin-1-yl-methyl]-furan-2-carboxylic acid] | 111 nM | > 50% | 163 to 165 °C | – |
| CCCCCn1cc(C2CCN(CCOc3ccccc3C(=O)O)CC2)c2ccccc21 [Example 2, 2-{2-[4-(1-pentyl-1H-indol-3-yl)-piperidin-1-yl]-ethoxy}-benzoic acid] | 57 nM | > 50% | 113 °C | – |
| CCOCCn1cc(C2CCN(CCOc3ccc(C)cc3C(=O)O)CC2)c2cc(F)ccc21 [Example 145, 2-(2-{4-[1-(2-ethoxy-ethyl)-5-fluoro-1H-indol-3-yl]-piperidin-1-yl}-ethoxy)-5-methyl-benzoic acid] | 116 nM | – | – | – |
| COCCOCCn1cc(C2CCN(Cc3ccc(C(=O)O)o3)CC2)c2ccccc21 [Example 40, 5-(4-{1-[2-(2-methoxy-ethoxy)-ethyl]-1H-indol-3-yl}-piperidin-1-yl-methyl)-furan-2-carboxylic acid] | 210 nM | – | 159 °C | – |
| C=CCOCCn1cc(C2CCN(CCOc3ccccc3C(=O)O)CC2)c2ccccc21 [Example 134, 2-(2-{4-[1-(2-allyloxy-ethyl)-1H-indol-3-yl]-piperidin-1-yl}-ethoxy)-benzoic acid] | 86 nM | – | – | – |
| CCOCCn1cc(C2CCN(CCOc3cccc(C(=O)O)c3)CC2)c2ccccc21 [Example 10] | 145 nM | – | – | – |
| CCOCCn1cc(C2CCN(CCOc3ccc(C(=O)O)cc3)CC2)c2ccccc21 [Example 137, 4-(2-{4-[1-(2-ethoxy-ethyl)-1H-indol-3-yl]piperidin-1-yl}-ethoxy)-benzoic acid] | 150 nM | – | – | – |
| CCCCCn1cc(C2CCN(CCCC(O)c3ccc(C(C)(C)C(=O)O)cc3)CC2)c2ccccc21 (stereo not drawn) [Example 34, 2-(4-{1-hydroxy-4-[4-(1-pentyl-1H-indol-3-yl)-piperidin-1-yl]-butyl}-phenyl)-2-methyl-propionic acid] | 127 nM | – | – | – |
| CCOCCn1cc(C2CCN(CCOc3ccc(C)cc3C(=O)O)CC2)c2ccccc21 [Example 154, 2-(2-{4-[1-(2-ethoxy-ethyl)-1H-indol-3-yl]-piperidin-1-yl}-ethoxy)-5-methyl-benzoic acid] | – | – | 109 to 112 °C | – |
| CCCCCCn1cc(C2CCN(CCOc3ccccc3C(=O)O)CC2)c2ccccc21 [Example 149, 2-{2-[4-(1-hexyl-1H-indol-3-yl)-piperidin-1-yl]-ethoxy}-benzoic acid] | 142 nM | > 50% | – | – |

| SMILES | IC50 (histamine-H1 receptors; [2]) | inhibition in vivo at 3 mg/kg [1] | melting point | IC50 (histamine-H1 receptors) |
| --- | --- | --- | --- | --- |
| CCCCn1cc(C2CCN(CCOc3ccccc3C(=O)O)CC2)c2ccccc21 [Example 148, 2-{2-[4-(1-butyl-1H-indol-3-yl)-piperidin-1-yl]-ethoxy}-benzoic acid] | 127 nM | > 50% | – | – |
| O=C(O)Cc1ccc(OCCCN2CCC(c3cn(CC4CC4)c4ccccc34)CC2)cc1 [Example 159, (4-{3-[4-(1-cyclopropylmethyl-1H-indol-3-yl)-piperidin-1-yl]-propoxy}-phenyl)-acetic acid] | 68 nM | – | 83 to 85 °C | – |
| O=C(O)c1ccccc1OCCN1CCC(c2cn(CC3CC3)c3ccccc23)CC1 [Example 157, 2-{2-[4-(1-cyclopropylmethyl-1H-indol-3-yl)-piperidin-1-yl]-ethoxy}-benzoic acid] | 140 nM | > 50% | 145 to 147 °C | – |
| COCCn1cc(C2CCN(CCOc3ccccc3C(=O)O)CC2)c2ccccc21 [Example 140, 2-(2-{4-[1-(2-methoxy-ethyl)-1H-indol-3-yl]-piperidin-1-yl}-ethoxy)-benzoic acid] | 83 nM | > 50% | 139 to 140 °C | – |
| O=C(O)c1cccc(CN2CCC(c3cn(CC4CC4)c4ccccc34)CC2)c1 [Example 158, 3-[4-(1-cyclopropylmethyl-1H-indol-3-yl)-piperidin-1-ylmethyl]-benzoic acid] | 104 nM | > 50% | 207 °C | – |
| O=C(O)c1ccccc1OCCN1CCC(c2cn(CC3CC3)c3cc(F)ccc23)CC1 [Example 150, 2-{2-[4-(1-cyclopropylmethyl-6-fluoro-1H-indol-3-yl)-piperidin-1-yl]-ethoxy}-benzoic acid] | 121 nM | > 50% | 97 °C | – |
| CC(C)OCCn1cc(C2CCN(CCOc3ccccc3C(=O)O)CC2)c2ccccc21 [Example 108, 2-(2-{4-[1-(2-iso-propoxy-ethyl)-1H-indol-3-yl]-piperidin-1-yl}-ethoxy)-benzoic acid] | 275 nM | > 50% | – | – |
| CCCCCn1cc(C2CCN(CCOCC(=O)O)CC2)c2ccccc21 [Example 38, {2-[4-(1-pentyl-1H-indol-3-yl)-piperidin-1-yl]-ethoxy}-acetic acid] | – | – | – | 174 nM |
| CCCCCn1cc(C2CCN(CCCOc3ccccc3C(=O)O)CC2)c2ccccc21 [Example 15, 2-{3-[4-(1-pentyl-1H-indol-3-yl)-piperidin-1-yl]-propoxy}-benzoic acid] | 88 nM | – | – | – |
| CCOCCn1cc(C2CCN(CCOc3ccccc3C(=O)O)CC2)c2ccccc21 [Example 138, 2-(2-{4-[1-(2-ethoxy-ethyl)-1H-indol-3-yl]piperidin-1-yl}-ethoxy)-benzoic acid] | 86 nM | > 50% | – | – |
| O=C(O)c1ccccc1OCCN1CCC(c2cn(Cc3ccc(F)cc3)c3ccccc23)CC1 [Example 1, 2-(2-{4-[1-(4-fluoro-benzyl)-1H-indol-3-yl]-piperidin-1-yl}-ethoxy)-benzoic acid] | 310 nM | – | – | – |
| CCOCCn1cc(C2CCN(CCCC(=O)O)CC2)c2ccccc21 [Example 3, 4-{4-[1-(2-ethoxy-ethyl)-1H-indol-3-yl]-piperidin-1-yl}-butyric acid] | 347 nM | – | – | – |
| CCOCCn1cc(C2CCN(Cc3cccc(C(=O)O)c3)CC2)c2ccccc21 [Example 66, 3-{4-[1-(2-ethoxy-ethyl)-1H-indol-3-yl]-piperidin-1-ylmethyl}-benzoic acid] | 248 nM | – | – | – |
| CCOCCn1cc(C2CCN(CCc3ccc(C=CC(=O)O)cc3)CC2)c2ccccc21 [Example 32, 3-[4-(2-{4-[1-(2-ethoxy-ethyl)-1H-indol-3-yl]-piperidin-1-yl}-ethyl)-phenyl]-acrylic acid] | 59 nM | – | – | – |
| CCOCCn1cc(C2CCN(CCC(=O)O)CC2)c2ccccc21 [Example 153, 3-{4-[1-(2-ethoxy-ethyl)-1H-indol-3-yl]-piperidin-1-yl}-propionic acid] | 245 nM | – | – | – |
| CCOCCn1cc(C2CCN(CCCOc3cccc(C(=O)O)c3)CC2)c2ccccc21 [Example 19, 3-(3-{4-[1-(2-ethoxy-ethyl)-1H-indol-3-yl]-piperidin-1-yl}-propoxy)-benzoic acid] | 89 nM | – | – | – |
| C=CCn1cc(C2CCN(CCOc3ccccc3C(=O)O)CC2)c2ccccc21 [Example 141, 2-{2-[4-(1-allyl-1H-indol-3-yl)-piperidin-1-yl]-ethoxy}-benzoic acid] | 97 nM | > 50% | 123 to 125 °C | – |
